According to the supplement of paper PMC11451515:

Tested on: SEM cells
Assay: cell viability relative to DMSO control; higher = less cytotoxic
Details: 48 h
How it was run: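 Leukemia cells (NOMO1 or SEM, 500 cells/well; P12-Ichikawa, 1000 cells/well) were seeded in 5 μl in 1536-well plates after at least four passages of adaptation to each medium. They received library compounds in DMSO by pin dosing, 11 threefold points from 47 μM to 0.79 nM. Luminescence with CellTiter-Glo One was read after 48 h at 37°C. Viability is stated per plate relative to DMSO wells, with cell-free wells as background.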

NC\1=N\C(=O)N(\C=C1)[C@@H]2O[C@H](CO)[C@@H](O)[C@H]2O
cell viability [%]
Details | HPLM + 10% dialyzed FBS | RPMI 5 mM glucose + 10% FBS | RPMI 5 mM glucose + 10% dialyzed FBS
0.000781 µM | 78.4 | 86.3 | 83.6
0.00234 µM | 93.7 | 102 | 101
0.00702 µM | 119 | 123 | 125
0.0211 µM | 98.3 | 90.4 | 94.5
0.0632 µM | 117 | 135 | 140
0.19 µM | 131 | 143 | 138
0.569 µM | 132 | 143 | 154
1.71 µM | 115 | 144 | 152
5.12 µM | 111 | 127 | 154
15.4 µM | 125 | 147 | 153
46.1 µM | 75.3 | 64.7 | 46.8
